Laboratory results taken from patent US10857196B2, “Bicyclic peptide ligands and uses thereof” (BicycleTx Limited, priority 2017, dated 2020).
Square brackets hold non-standard residues; d marks the D form. Ends that are not written are not given here. 1Nal = N[C@@H](Cc1cccc2ccccc12)C(=O)O; Tle = CC(C)(C)[C@H](N)C(=O)O; βAla = NCCC(=O)O; Sar = CNCC(=O)O

Key:
CAIX [1] = target: T1, CAIX (Homo sapiens, UniProt Q16790); assay: CAIX competition binding assay (competition fluorescence polarization); conditions: fluorescent ligand A-(CAECWIDGWVPC)-A-Sar6-K(Fl)
Experimental: CAIX Competition Binding Assay Affinity of the peptides of the invention for human CAIX (Ki) was determined using a competition fluorescence polarization assay analogous to that described in Dubois et al. (2011) Radiotherapy and Oncology 99(3), 424-43 using A-(CAECWIDGWVPC)-A-Sar6-K(Fl) (SEQ ID NO: 5) as the fluorescent ligand.
A Ki value designated “A” denotes a Ki of ≤50 nM; a Ki value designated “B” denotes a K, of >50 nM and ≤100 nM; a Ki value designated “C” denotes a Ki of >100 nM and ≤1,000 nM; and a Ki value designated “D” denotes a Ki of >1,000 nM.

MT1-MMP = MT1-MMP (Homo sapiens, UniProt P50281); conditions: bicyclic peptide formed with TBMB scaffold; MT1-MMP binder; cited from earlier work
CAIX [2] = target: T1, CAIX; conditions: bicyclic peptide formed with TBMB scaffold; CAIX binder; cited from earlier work

Ki (CAIX [1]) | Molecule | other results
> 1000 nM | CC(C)[C@@H]1NC(=O)[C@H](Cc2c[nH]c3ccccc23)NC(=O)[C@@H]2CSCC(=O)N3CC45CN(C[C@@]4(CN(C5)C(=O)CSC[C@H](NC(=O)[C@H](C)NC(=O)CN(C)C(=O)CN(C)C(=O)CN(C)C(=O)CN(C)C(=O)CN(C)C(=O)CN(C)C(=O)CN(C)C(=O)CN(C)C(=O)CN(C)C(=O)CN(C)C(=O)CCN)C(=O)N[C@@H]([C@@H](C)O)C(=O)N[C@@H](CCC(=O)O)C(=O)N2)C3)C(=O)CSC[C@@H](C(N)=O)NC(=O)[C@@H]2CCCN2C(=O)[C@H](C(C)C)NC(=O)[C@H](Cc2c[nH]c3ccccc23)NC(=O)CNC(=O)[C@H](CC(=O)O)NC1=O [Compound I-23] | –
> 1000 nM | CC(C)[C@@H]1NC(=O)[C@H](Cc2c[nH]c3ccccc23)NC(=O)[C@@H]2CSCCC(=O)N3CC45CN(CC4(CN(C5)C(=O)CCSC[C@H](NC(=O)[C@H](C)NC(=O)CN(C)C(=O)CN(C)C(=O)CN(C)C(=O)CN(C)C(=O)CN(C)C(=O)CN(C)C(=O)CN(C)C(=O)CN(C)C(=O)CN(C)C(=O)CN(C)C(=O)CCN)C(=O)N[C@@H]([C@@H](C)O)C(=O)N[C@@H](CCC(=O)O)C(=O)N2)C3)C(=O)CCSC[C@@H](C(=O)O)NC(=O)[C@@H]2CCCN2C(=O)[C@H](C(C)C)NC(=O)[C@H](Cc2c[nH]c3ccccc23)NC(=O)CNC(=O)[C@H](CC(=O)O)NC1=O [Compound I-24] | –
≤ 50 nM | CC(C)[C@@H]1NC(=O)[C@H](Cc2c[nH]c3ccccc23)NC(=O)[C@@H]2CSCC(=O)NCCN(CCNC(=O)CSC[C@@H](C(N)=O)NC(=O)[C@@H]3CCCN3C(=O)[C@H](C(C)C)NC(=O)[C@H](Cc3c[nH]c4ccccc34)NC(=O)CNC(=O)[C@H](CC(=O)O)NC1=O)CCNC(=O)CSC[C@H](NC(=O)[C@H](C)NC(=O)CN(C)C(=O)CN(C)C(=O)CN(C)C(=O)CN(C)C(=O)CN(C)C(=O)CN(C)C(=O)CN(C)C(=O)CN(C)C(=O)CN(C)C(=O)CN(C)C(=O)CCN)C(=O)N[C@@H]([C@@H](C)O)C(=O)N[C@@H](CCC(=O)O)C(=O)N2 [Compound I-63] | –
– | βAla-Sar10-A-C(D-Ala)NE(1Nal)(D-Ala)CEDFYD(tBuGLy)C ([βAla][Sar][Sar][Sar][Sar][Sar][Sar][Sar][Sar][Sar][Sar]AC[dA]NE[1Nal][dA]CEDFYD[Tle]C; cysteine pairing not given here) [17-69-07-N241] | Kd (MT1-MMP): 1.2 nM
– | βAla-Sar10-A-CTECWVDGWVPC [Compound 2] | Kd (CAIX [2]): 10 nM

Molecule | Ki (CAIX [1]) | other results
CC(C)[C@@H]1NC(=O)[C@H](Cc2c[nH]c3ccccc23)NC(=O)[C@@H]2CSCC(=O)N3CCOCCN(CCOCCN(CCOCC3)C(=O)CSC[C@H](NC(=O)[C@H](C)NC(=O)CN(C)C(=O)CN(C)C(=O)CN(C)C(=O)CN(C)C(=O)CN(C)C(=O)CN(C)C(=O)CN(C)C(=O)CN(C)C(=O)CN(C)C(=O)CN(C)C(=O)CCN)C(=O)N[C@@H]([C@@H](C)O)C(=O)N[C@@H](CCC(=O)O)C(=O)N2)C(=O)CSC[C@@H](C(=O)O)NC(=O)[C@@H]2CCCN2C(=O)[C@H](C(C)C)NC(=O)[C@H](Cc2c[nH]c3ccccc23)NC(=O)CNC(=O)[C@H](CC(=O)O)NC1=O [Compound I-26] | 100 to 1000 nM | –
CC(C)[C@@H]1NC(=O)[C@H](Cc2c[nH]c3ccccc23)NC(=O)[C@@H]2CSCCS(=O)(=O)N3CCN(CCN(CC3)S(=O)(=O)CCSC[C@H](NC(=O)[C@H](C)NC(=O)CN(C)C(=O)CN(C)C(=O)CN(C)C(=O)CN(C)C(=O)CN(C)C(=O)CN(C)C(=O)CN(C)C(=O)CN(C)C(=O)CN(C)C(=O)CN(C)C(=O)CCN)C(=O)N[C@@H]([C@@H](C)O)C(=O)N[C@@H](CCC(=O)O)C(=O)N2)S(=O)(=O)CCSC[C@@H](C(=O)O)NC(=O)[C@@H]2CCCN2C(=O)[C@H](C(C)C)NC(=O)[C@H](Cc2c[nH]c3ccccc23)NC(=O)CNC(=O)[C@H](CC(=O)O)NC1=O [Compound I-62] | 100 to 1000 nM | –
